According to patent publication US7326708B2, “Phosphoric acid salt of a dipeptidyl peptidase-IV inhibitor” (Merck & Co., Inc., priority 2003, dated 2008):

Assays:
[1] = physical (crystal form) stability of the solid; format: physicochemical; settings: for stability of the crystal form: ambient condition
[2] = solubility in water; format: physicochemical

Row | SMILES | stability of the crystal form [1] | crystal form change on heating ([1]; heated to above 40° C. under very dry nitrogen flow) | solubility [2] | solubility in water (in words) [2]
1 | N[C@@H](CC(=O)N1CCn2c(nnc2C(F)(F)F)C1)Cc1cc(F)c(F)cc1F.O=P(O)(O)O [Dehydrated monohydrate] | converted back to monohydrate |  |  | 
2 | N[C@@H](CC(=O)N1CCn2c(nnc2C(F)(F)F)C1)Cc1cc(F)c(F)cc1F [(2R)-4-oxo-4-[3-(trifluoromethyl)-5,6-dihydro[1,2,4]triazolo[4,3-a]pyrazin-7(8H)-yl]-1-(2,4,5-trifluorophenyl)butan-2-amine dihydrogenphosphate monohydrate] | stable under ambient condition | convert to dehydrated monohydrate | ~72 mg/mL | high solubility in water
3 | NC(CC(=O)N1CCn2c(nnc2C(F)(F)F)C1)Cc1cc(F)c(F)cc1F (stereo not drawn) [4-oxo-4-[3-(trifluoromethyl)-5,6-dihydro[1 ,2,4]triazolo[4,3-a]pyrazin-7(8H)-yl]-1-(2,4,5-trifluorophenyl) butan-2-amine] |  |  |  | high solubility in water
